The values that follow come from patent publication US20150218120A1 (The Regents of the University of California, priority 2011, published 2015).

The structures appear in SMILES notation. Values joined by “and” are separate entries in the source; they are usually repeats but may differ in a detail not shown here. Equal values may be shown once. Read-outs that look alike come from different tables or passages of the source. Where only a bound is given, the exact number is not on record here.

Series [1] addresses T1, HIV-1 IN (Human immunodeficiency virus type 1 group M subtype B, UniProt P12497). The series is described as follows: HIV-1 IN 3′-processing (3P) gel-based catalytic assay. It counts as biochemical. More on the design: made in house. The text has this:
As described above, HIV-1 IN has two functions: 3′-processing (3P) and strand transfer (ST).
Gels were dried and reaction products were visualized and quantified with a Typhoon 8600 (GE Healthcare, Little Chalfont, Buckinghamshire, UK).

Series [2] has as its target T1, HIV-1 IN. The series is described as follows: HIV-1 IN strand transfer (ST) gel-based catalytic assay. More on the design: made in house. As to conditions: for IC50: Strand Transfer IC50, 32P-end labeled oligonucleotides in solution, gel-based separation. It counts as biochemical. The text has this: As described above, HIV-1 IN has two functions: 3′-processing (3P) and strand transfer (ST). […] All 21 RCD compounds were screened for inhibitory activity against the 3P and ST reactions using published protocols (Metifiot M, et al., Biochemistry 49:3715-3722 (2010); Marchand C, Neamati N, & Pommier Y, Methods Enzymol 340:624-633 (2001)).
Some assays use preassembled HIV-1 IN on immobilized oligonucleotides (Pace P, et al., J. Med. Chem. 50(9):2225-2239 (2007)), whereas the assay provided herein uses ^32-P-end labeled oligonucleotides in solution and gel-based separation of the reaction products.
Recombinant HIV-1 IN and oligonucleotide substrates were obtained as previously reported (Marinello et al. Biochemistry 2008, 47, 9345-9354; Metifiot et al. Antimicrob. Agents Chemother. 2011, 55, 5127-5133; Hare et al. Mol. Pharmacol. 2011, 80, 565-572). Integrase reactions were performed in 10 μL total volume including 400 nM HIV-1 IN, 20 nM 5′-end [^32P]-labeled oligonucleotide substrate, and 1 μL inhibitor solution in 50 mM MOPS, pH 7.2, 7.5 mM MgCl2, and 14.3 mM 2-mercaptoethanol Inhibitor dilutions were in DMSO, and DMSO without drug was used as a control. Reactions were incubated at 37° C. for 60 min, terminated by adding 10 μL loading dye (10 mM EDTA, 98% deionized formamide, 0.025% xylene cyanol, and 0.025% bromophenol blue), and were subjected to electrophoresis in 20% polyacrylamide-7 M urea gels. Gels were dried and reaction products were visualized and quantified with a Typhoon 8600 (GE Healthcare, Little Chalfont, Buckinghamshire, UK).

Series [3] deals with HIV. In words: microbe, parasite or virus in culture. It counts as cell-based. As to conditions: read-out: Antiviral Activity IC50. The protocol:
(§1) In addition to cell-free in vitro assays, eight RCD compounds were examined for inhibition of viral replication (Table 1) (Day J R, et al., J. Virol. Meth. 137(1):125-133 (2006)).
Computational docking was preformed using the Glide software package (Glide v5.5; Schrodinger, Inc.). Enzyme and cell-based assays were performed as previously described (Metifiot M, et al., Biochemistry 49:3715-3722 (2010); Marchand C, Neamati N, & Pommier Y, Methods Enzymol 340:624-633 (2001); Day J R, et al., J. Virol. Meth. 137(1):125-133 (2006)). Complete synthetic and experimental details are provided herein.

For series [4], the system named is P4R5 cells. In words: Toxicity assay on P4R5 cells. It counts as cell-based. As to conditions: at a concentration of 10 μM.
Source text: as §1

Series [5] addresses T1, HIV-1 IN. As to conditions: read-out: IC50 against the strand transfer reaction of HIV-1 IN, reported value; Pace et al. 2007; preassembled IN on immobilized oligonucleotides; cited from earlier work.
The mark [6] stands for this setting: Human immunodeficiency virus 1, P4/R5, P4R5 cells.

The term IC50 denotes the concentration that gives 50% inhibition. Turning to `O=C(NCc1ccc(F)cc1)c1cccc(C(=O)NCc2ccc(F)cc2)c1O` [RCD-19, N1,N3-Bis(4-fluorobenzyl)-2-hydroxyisophthalamide], the half-inhibitory concentration (IC50) in series [1] (read-out: 3'-Processing IC50) and in series [2] was more than 300 µM in each case.

Consider `O=C(NCc1ccc(F)cc1)c1occc(=O)c1O` [RCD-4], for which the IC50 was more than 100 µM in series [1] (read-out: 3'-Processing IC50) and 0.96 µM in series [2].

Turning to `COc1cccc(C(=O)NCc2ccc(F)cc2)c1O` [RCD-9, N-(4-Fluorobenzyl)-2-hydroxy-3-methoxybenzamide], the IC50 in series [1] (read-out: 3'-Processing IC50) and in series [2] was more than 100 µM throughout. The “Strand transfer activity in words” value in series [2] (concentrations as high as 100 μM) is “complete loss of activity”.

Regarding `CNC(=O)c1ccc(C(=O)NCc2ccc(F)cc2)c(O)c1O` [RCD-10, N1-(4-Fluorobenzyl)-2,3-dihydroxy-N4-methylterephthalamide], the IC50 in series [3] (setting [6]) is less than 4 µM; in series [3] (P4R5 cells), 4 µM; in series [1] it was more than 200 µM; in series [2] it was 1.5 µM and < 15 µM and < 2 µM.

For the compound `O=C(NCc1ccc(F)cc1)c1cccc(=O)n1O` [RCD-7], the values for the half-inhibitory concentration (IC50) in series [1] (read-out: 3'-Processing IC50) and in series [2] were more than 100 µM and 19.7 ± 1.6 µM, respectively.

As for `O=C(NCc1ccc(F)cc1)c1ccc(C(=O)NCc2ccc(F)cc2)c(O)c1O` [RCD-11, N1,N4-Bis(4-fluorobenzyl)-2,3-dihydroxyterephthalamide], the IC50 in series [1] (read-out: 3'-Processing IC50) is more than 300 µM; in series [2], 1.7 µM and < 2 µM.

On to `Cc1occ(O)c(=O)c1C(=O)NCc1ccc(F)cc1`, for which the IC50 is more than 100 µM in series [1] (read-out: 3'-Processing IC50) and 56 ± 7 µM in series [2].

For the compound `O=C(NCc1ccc(F)cc1)c1ccc2ccc[n+]([O-])c2c1O` [RCD-14, 7-((4-Fluorobenzyl)carbamoyl)-8-hydroxyquinoline 1-oxide], the “Toxicity on P4R5 cells” value in series [4] is “some toxicity”. The values for the IC50 in series [1] and in series [2] were 40.5 ± 2 µM and 3.8 ± 0.3 µM, respectively.

As to `Cc1cc(=O)c(O)c(C(=O)NCc2ccc(F)cc2)o1` [RCD-5], the IC50 in series [1] (read-out: 3'-Processing IC50) is 59.5 ± 1.4 µM; in series [2] it was 0.55 µM and < 15 µM.

Consider `Cc1cc(=O)c(O)c(C(=O)NCc2ccc(F)cc2)n1C` [RCD-3], for which the IC50 in series [1] (read-out: 3'-Processing IC50) and in series [2] was more than 100 µM each time.

As to `O=C(O)c1cccc(C(=O)NCc2ccc(F)cc2)[n+]1[O-]` [RCD-16, 2-Carboxy-6-((4-fluorobenzyl)carbamoyl)pyridine 1-oxide], the values for the concentration for half-maximal inhibition (IC50) in series [1] (read-out: 3'-Processing IC50) and in series [2] were 21.4 ± 3 µM and 9.2 ± 1.3 µM, respectively.

On to `O=C(NCc1ccc(F)cc1)c1cccc(C(=O)NCc2ccc(F)cc2)[n+]1[O-]` [RCD-17, 2,6-Bis((4-fluorobenzyl)carbamoyl)pyridine 1-oxide], for which the half-inhibitory concentration (IC50) was more than 100 µM in series [3] (setting [6]), more than 300 µM in series [1] and more than 100 µM in series [2].

As for `O=C(NCc1ccc(F)cc1)c1ccc2cccnc2c1O` [RCD-12], the half-inhibitory concentration (IC50) in series [3] (setting [6]) was less than 4 µM; in series [3] (P4R5 cells), 2.3 µM.

Take `Cn1ccc(=O)c(O)c1C(=O)NCc1ccc(F)cc1` [RCD-2]: the IC50 in series [1] (read-out: 3'-Processing IC50) and in series [2] was more than 100 µM throughout.

The inhibition is the change of the read-out against control, counted positive when it falls. As to `O=C(NCc1ccc(F)cc1)c1ccc2cccc(O)c2n1` [RCD-13, N-(4-Fluorobenzyl)-8-hydroxyquinoline-2-carboxamide], the IC50 in series [3] (setting [6]), in series [1] (read-out: 3'-Processing IC50) and in series [2] was more than 100 µM throughout. For the same compound, the inhibition at 100 µM in series [2] (read-out: Strand transfer inhibition) was less than 30%.

Regarding `Cc1nc(C(=O)NCc2ccc(F)cc2)c(O)c(=O)[nH]1` [RCD-1, N-(4-Fluorobenzyl)-5-hydroxy-2-methyl-6-oxo-1,6-dihydropyrimidine-4-carboxamide], the IC50 was 0.06 µM in series [5]; more than 100 µM in series [1]; ~1 µM and 1 µM in series [2]. Further, in series [2] (ST versus 3P), the “Selectivity for ST versus 3P reaction” value was “selectivity for the ST versus 3P reaction”.

For the compound `O=C(NCc1ccc(F)cc1)c1ccccc1O` [RCD-15, N-(4-Fluorobenzyl)-2-hydroxybenzamide], the IC50 in series [1] (read-out: 3'-Processing IC50) and in series [2] was more than 100 µM in each case.

With `O=C(NCc1ccc(F)cc1)c1cccc(O)c1O` [RCD-8, N-(4-Fluorobenzyl)-2,3-dihydroxybenzamide], the values for the concentration for half-maximal inhibition (IC50) in series [1] (read-out: 3'-Processing IC50) and in series [2] were more than 100 µM and 39.4 ± 4 µM, respectively.

As to `CNC(=O)c1cccc(C(=O)NCc2ccc(F)cc2)c1O` [RCD-18, N1-(4-Fluorobenzyl)-2-hydroxy-N3-methylisophthalamide], the IC50 in series [3] (setting [6]) was more than 100 µM; in series [1], more than 300 µM; in series [2], more than 300 µM.
